Results from ChEMBL document CHEMBL1201862, “PubChem BioAssay data set” (2004).
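All cell lines were grown in 96-well plates and treated with compound for 48 hours. The concentration for 50% growth inhibition is given as GI50.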 Active and inactive are the calls of the source. Rule as the data show it: active = GI50 up to about 1.1 µM and inactive = higher.

Experiments:
Test in all cases: NCI tumour cell line growth inhibition, 48 h
MDA-MB-231 = system: MDA-MB-231
HCT-116 = system: HCT-116
SNB-75 = system: SNB-75
SK-OV-3 = system: SK-OV-3
KM12 = system: KM12
CCRF-CEM = system: CCRF-CEM
SW-620 = system: SW-620
ACHN = system: ACHN
MDA-N = system: MDA-N
UACC-62 = system: UACC-62
HOP-62 = system: HOP-62
SK-MEL-5 = system: SK-MEL-5
BT-549 = system: BT-549
CAKI-1 = system: CAKI-1
SR = system: SR
UACC-257 = system: UACC-257
OVCAR-8 = system: OVCAR-8
DU-145 = system: DU-145
Malme-3M = system: Malme-3M
NCI-H522 = system: NCI-H522
SF-295 = system: SF-295
SF-539 = system: SF-539
SN12C = system: SN12C
IGROV-1 = system: IGROV-1
MDA-MB-435 = system: MDA-MB-435
M14 = system: M14
HCC 2998 = system: HCC 2998
NCI-H226 = system: NCI-H226
EKVX = system: EKVX
RPMI-8226 = system: RPMI-8226
UO-31 = system: UO-31
MOLT-4 = system: MOLT-4
T47D = system: T47D
MCF7 = system: MCF7
LOX IMVI = system: LOX IMVI
TK-10 = system: TK-10
HCT-15 = system: HCT-15
786-0 = system: 786-0
SK-MEL-28 = system: SK-MEL-28
SNB-19 = system: SNB-19
HL-60 = system: HL-60
A498 = system: A498
SF-268 = system: SF-268
Hs-578T = system: Hs-578T
HT-29 = system: HT-29
K562 = system: K562
NCI-H23 = system: NCI-H23
COLO 205 = system: COLO 205
NCI-H460 = system: NCI-H460
PC-3 = system: PC-3
A549 = system: A549

Measured: GI50

COc1cc2c(c(OC)c1)[C@H](C)N(Cc1ccccc1)C(C)C2 (stereo partly specified)
28.6 µM: HCT-15
inactive: MDA-MB-231 36.3 µM | HCT-116 14.7 µM | SNB-75 41.1 µM | SK-OV-3 > 100 µM | KM12 30.2 µM | CCRF-CEM 36.6 µM | SW-620 28.9 µM | ACHN 31.3 µM | MDA-N > 10 µM | UACC-62 52.5 µM | HOP-62 > 100 µM | SK-MEL-5 25.4 µM | BT-549 61.8 µM | CAKI-1 64.9 µM | SR 25.8 µM | UACC-257 67.8 µM | OVCAR-8 74.1 µM | DU-145 > 100 µM | Malme-3M 62.4 µM | NCI-H522 > 100 µM | SF-295 16.3 µM | SF-539 16.6 µM | SN12C 35.2 µM | IGROV-1 29.4 µM | MDA-MB-435 16.3 µM | M14 17.7 µM | HCC 2998 33 µM | NCI-H226 23.7 µM | EKVX > 100 µM | RPMI-8226 21.3 µM | UO-31 54.2 µM | MOLT-4 22.7 µM | T47D 45.9 µM | MCF7 42.2 µM | LOX IMVI 30.1 µM | TK-10 37.2 µM | 786-0 36.1 µM | SK-MEL-28 30.5 µM | SNB-19 > 100 µM | HL-60 4.88 µM | A498 > 100 µM | SF-268 80.2 µM | Hs-578T 25.5 µM | HT-29 9.57 µM | K562 21.9 µM | NCI-H23 95.3 µM | COLO 205 29.5 µM | NCI-H460 11 µM | PC-3 > 100 µM | A549 43.5 µM
